Paper PMC9598656, “In Vitro Activity of Robenidine Analogues NCL259 and NCL265 against Gram-Negative Pathogens” (Antibiotics, 2022)
Converted amounts (≈) assume the structure as drawn.

Assays:
Assay type in all cases: cell-based
[1] = system: HEL 299 (non-cancerous human lung fibroblast cell line); assay: In vitro cytotoxicity, WST-1; details: HEL 299, 24 h
Source text: (§1) Potential toxicity of NCL259 and NCL265 to mammalian cells relative to the parent compound (NCL812) was examined using Caco-2 (human colorectal adenocarcinoma cell line), HEL 299 (non-cancerous human lung fibroblast cell line), Hep G2 (human hepatocellular carcinoma cell line), MCF-7 (human mammary gland adenocarcinoma cell line), MDBK (normal Madin–Darby bovine kidney cell line) and Vero (normal adult African green monkey cell line), essentially as described previously. Toxicity to the cell lines was performed using serial two-fold dilutions of each compound from 128 to 1 μg/mL in duplicates in flat bottom 96 well tissue culture trays (Sarstedt 83.3924) containing approximately 2 × 10^4 cells per well in antibiotic-free Dulbecco’s Modified Eagle’s Medium (DMEM; Gibco Cat No: 12430; Thermo Fisher Scientific, Scoresby, VIC, Australia) consisting of 10% (v/v) fetal bovine serum at 37 °C, 5% CO2 for 24 h. Duplicate wells containing ampicillin at 128 to 1 μg/mL were used as controls. Thereafter, 10% (v/v) of the WST-1 cell proliferation assay reagent (Cat No: 05015944001; Roche Life Science, North Ryde, NSW, Australia) was added to each well, the trays were further incubated at 37 °C, 5% CO2 for 1 h and absorbance read at A450nm on a Multiskan Ascent 354 Spectrophotometer (Labsystems, Lilydale, VIC, Australia). The inhibitory concentration of each compound was determined as the half maximal inhibitory concentration (IC50) at A450nm.

[2] = system: Hep G2 (human hepatocellular carcinoma cell line); assay: In vitro cytotoxicity, WST-1; details: HepG2, 24 h
Source text: as §1

[3] = system: MCF-7 (human mammary gland adenocarcinoma cell line); assay: In vitro cytotoxicity, WST-1; details: MCF7, 24 h
Source text: as §1

[4] = system: MDBK (normal Madin–Darby bovine kidney cell line); assay: In vitro cytotoxicity, WST-1; details: Bos taurus, 24 h
Source text: as §1

[5] = system: Vero (normal adult African green monkey cell line); assay: In vitro cytotoxicity, WST-1; details: Chlorocebus sabaeus, 24 h
Source text: as §1

[6] = system: sheep red blood cells (SRBCs); assay: Hemolysis assay; details: 1 h
Protocol: The haemolytic activity of the compounds was determined using 1% sheep red blood cells (SRBCs), as described previously. […]. After incubation at 37 °C with shaking at 100 rpm for 1 h, the trays were centrifuged at 1000× g for 3 min and 100 μL of supernatant from each well was transferred into a new 96-well tray. Absorbance was measured at A450nm on a Multiskan Ascent 354 Spectrophotometer (Labsystems) and plotted against each dilution. The haemolytic titre (HC50) of each compound was determined as the reciprocal of the dilution at which 50% of SRBCs were lysed at A450nm.

[7] = system: Caco-2 (human colorectal adenocarcinoma cell line); assay: In vitro cytotoxicity, WST-1; details: Caco-2, 24 h
[8] = first of two independent experiments
[9] = second of two independent experiments

SMILES | IC50 [1, 8] [µg/mL] | IC50 [1, 9] [µg/mL] | IC50 [2, 8] [µg/mL] | IC50 [2, 9] [µg/mL] | IC50 [3, 8] [µg/mL] | IC50 [3, 9] [µg/mL] | IC50 [4, 8] [µg/mL] | IC50 [4, 9] [µg/mL] | IC50 [5, 8] [µg/mL] | IC50 [5, 9] [µg/mL] | HC50 ([6]; 1% SRBC, first of two independent experiments) | HC50 ([6]; 1% SRBC, second of two independent experiments) | IC50 [7, 8] [µg/mL] | IC50 [7, 9] [µg/mL] | HC50 ([6]; sheep)
CC1(C)S[C@@H]2[C@H](NC(=O)[C@H](N)c3ccccc3)C(=O)N2[C@H]1C(=O)O [Ampicillin, reference compound] | > 128 | > 128 | > 128 | > 128 | > 128 | > 128 | > 128 | > 128 | > 128 | > 128 | >128, >128 μg/mL | >128, >128 μg/mL |  |  | 
N=C(N/N=C/c1ccc(Cl)cc1)N/N=C/c1ccc(Cl)cc1 [NCL812, Robenidine] | 8 (≈ 23.9 µM) | 6 (≈ 18 µM) | 6 (≈ 18 µM) | 8 (≈ 23.9 µM) | 8 (≈ 23.9 µM) | 12 (≈ 35.9 µM) | 8 (≈ 23.9 µM) | 12 (≈ 35.9 µM) | 8 (≈ 23.9 µM) | 4 (≈ 12 µM) |  |  | 8 (≈ 23.9 µM) | 12 (≈ 35.9 µM) | 32, 32 μg/mL
